# Measurements: patent US20030013660A1, “Dioxolane analogs for improved inter-cellular delivery” (Shire BioChem Inc., priority 2000, published 2003)
# “And” between values parts separate entries of the source, which are not always exact repeats. Identical values can stand only once.
# Key:
# CEM cells = assay: CellTiter 96 cell proliferation assay (chemosensitivity), 48 h; assay type: cell-based
# Protocol: (§1) The chemosensitivity of suspension cells lines (e.g., CEM or CEM-derivatives) is assessed using the CellTiter 96 ? proliferation assay. […] Adherent cell lines (e.g., DU145 or DU145^R) are seeded (^˜10^5 cells) in triplicate dishes, 24 h before drug exposure. Growth inhibition is determined by trypsinization and counting cells electronically.
# CEM/dCK cells = assay: as above; assay type: cell-based; conditions: read-out: EC50 (50% of the dose response curve), 48 h exposure
# Protocol: as §1
# CEM/ARAC8C cells [1] = assay: as above; assay type: cell-based
# Protocol: as §1
# MCF-7 [2] = assay: 3H-TdR (3H-thymidine) incorporation assay at 72 hr; assay type: cell-based, Human
# H-460 [3] = assay: 3H-TdR (3H-thymidine) incorporation assay at 72 hr; assay type: cell-based, Human
# SF-268 [4] = assay: 3H-TdR (3H-thymidine) incorporation assay at 72 hr; assay type: cell-based, Human
# CCRF-CEM [5] = assay: 3H-TdR (3H-thymidine) incorporation assay at 72 hr; assay type: cell-based
# Protocol: (§2) Table of IC50 Values (μM) for Controls
# (§3) Exposition of 24 hr to drug, wash, incubated for another 48 hr (total of 72 hr assay)
# (§4) (3H-Thymidine Incorporation Assay)
# CEM/dCK- [6] = assay: 3H-TdR (3H-thymidine) incorporation assay at 72 hr; assay type: cell-based
# Protocol: as §2, §3, §4
# H-460 [7] = assay: MTT assay at 72 hr (24 hr drug exposure, wash, 48 hr); assay type: cell-based
# Protocol: (§5) Exposition of 24hr to drug, washed, and incubated for another 48hr (total of 72hr assay)
# MCF-7 [8] = assay: as above; assay type: cell-based; conditions: Homo sapiens, MCF7, read-out: IC50 MCF-7 24 h, Average, MTT at 72 hr, Average of the experiments
# Protocol: as §5
# SF-268 [9] = assay: as above; assay type: cell-based; conditions: Homo sapiens, SF-268, read-out: IC50 SF-268 24 h, Average, MTT at 72 hr, Average of the experiments
# Protocol: as §5
# CCRF-CEM [10] = assay: MTT or WST-1 assay at 72 hr (24 hr drug exposure, wash, 48 hr); assay type: cell-based; conditions: Homo sapiens, CCRF-CEM, read-out: IC50 CCRF-CEM 24 h, Average, MMT or WST-1 at 72 hr, Average of the experiments
# Protocol: as §5
# CEM/dCK- [11] = assay: as above; assay type: cell-based
# Protocol: as §5
# hENT1 = biological target: T1, hENT1 (Homo sapiens, UniProt Q99808); assay: Cellular uptake assay of [3H]nucleoside in DU145 cells, with or without NBMPR or excess non-radioactive troxacitabine; assay type: in vitro ADME; design: The presence of functional es-mediated transport (hENT1) in DU145 cells; endogenous in cells; host or cells: DU145 cells; conditions: DU-145, 10 μM, 6-min time course, read-out: inhibition of total [3H]uridine uptake in the presence of NBMPR
# T1 sequence (Q99808 1-456): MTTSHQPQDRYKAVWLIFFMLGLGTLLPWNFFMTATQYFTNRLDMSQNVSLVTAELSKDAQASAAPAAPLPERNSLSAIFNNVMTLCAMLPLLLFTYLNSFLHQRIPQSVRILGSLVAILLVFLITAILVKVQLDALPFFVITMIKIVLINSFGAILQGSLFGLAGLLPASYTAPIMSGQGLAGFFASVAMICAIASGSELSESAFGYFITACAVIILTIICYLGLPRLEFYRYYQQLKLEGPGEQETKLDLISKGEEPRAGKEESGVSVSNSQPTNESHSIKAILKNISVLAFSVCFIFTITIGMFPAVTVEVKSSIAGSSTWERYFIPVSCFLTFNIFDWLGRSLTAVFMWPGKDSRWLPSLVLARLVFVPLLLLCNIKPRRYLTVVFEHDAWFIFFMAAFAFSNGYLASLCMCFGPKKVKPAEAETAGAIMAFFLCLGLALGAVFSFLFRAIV
# Protocol: Cancer Res., 56: 4187-4191.
# This experiment is designed to show whether [^3H]L-troxacitabine (10 μM) is taken up by DU145 cells and if the rate of uptake is affected by the addition of high concentrations (1 mM) of non-radioactive troxacitabine.
# CEM/ARAC8C cells [12] = assay: Cellular uptake assay of [3H]nucleoside in nucleoside-transport deficient CEM/ARAC8C cells; assay type: in vitro ADME
# Protocol: FIG. 1 Comparative uptake of 30 μM [^3H]-troxacitabine in CEM (Panel A) and CEM/ARAC8C (Panel B) cells. [^3H]-Uridine uptake in either the presence or absence of the hENT1 inhibitor, NBMPR or 5 mM non-radioactive uridine was included for comparison as a control substrate.
compound,measurement,setting,value
"Nc1ccn([C@@H]2O[C@H](CO)[C@@H](O)C2(F)F)c(=O)n1 [Gemcitabine, gemcitabine, reference compound]",EC50,"CEM cells; Homo sapiens, CCRF-CEM, read-out: EC50 (50% of the dose response curve), CEM cells, 48 h exposure",20 nM
same,effect of the es transport inhibitor NBMPR on resistance of CEM cells,CEM cells; presence of NBMPR,increased resistance
same,EC50,CEM/dCK cells,> 50000 nM
same,level of resistance of nucleoside-transport deficient CEM/ARAC8C cells,CEM/ARAC8C cells [1]; CEM/ARAC8C compared to CEM,431 fold
same,EC50,"CEM/ARAC8C cells [1]; read-out: EC50 (50% of the dose response curve), CEM/ARAC8C cells, 48 h exposure",8630 nM
same,IC50,"MCF-7 [2]; Homo sapiens, MCF7, 24 h, read-out: IC50 MCF-7 24 h, Average, Average ± spread of the repeat determinations, 24 h exposure",6.8 nM
same,IC50,"MCF-7 [2]; read-out: IC50 MCF-7 24 h, 24 h drug exposure, wash, another 48 hr, 3H-TdR incorporation at 72 hr",8.7 nM and 10 nM
same,IC50,"H-460 [3]; Homo sapiens, NCI-H460, 24 h, read-out: IC50 H-460 24 h, Average, Average ± spread of the repeat determinations, 24 h exposure",11 nM
same,IC50,"H-460 [3]; read-out: IC50 H-460 24 h, 24 h drug exposure, wash, another 48 hr, 3H-TdR incorporation at 72 hr",9.1 nM and 10 nM and 8.3 nM
same,IC50,"SF-268 [4]; Homo sapiens, SF-268, 24 h, read-out: IC50 SF-268 24 h, Average, Average ± spread of the repeat determinations, 24 h exposure",8.6 nM
same,IC50,"SF-268 [4]; read-out: IC50 SF-268 24 h, 24 h drug exposure, wash, another 48 hr, 3H-TdR incorporation at 72 hr",4.5 nM and 10 nM and 9.4 nM
same,IC50,"CCRF-CEM [5]; Homo sapiens, CCRF-CEM, 24 h, read-out: IC50 CCRF-CEM 24 h, Average, Average ± spread of the repeat determinations, 24 h exposure",8.4 nM
same,IC50,"CCRF-CEM [5]; read-out: IC50 CCRF-CEM 24 h, 24 h drug exposure, wash, another 48 hr, 3H-TdR incorporation at 72 hr",10 nM and 9.2 nM
same,IC50,"CEM/dCK- [6]; 24 h, read-out: IC50 CEM/dCK- 24 h, Average, Average ± spread of the repeat determinations, 24 h exposure",66000 ± 24000 nM
same,"Factor* (Resistance Factor), Average",CEM/dCK- [6]; Average ± spread of the ratios dCK- on wild-type CCRF-CEM,8618 ± 3614
same,IC50,"CEM/dCK- [6]; read-out: IC50 CEM/dCK- 24 h, 24 h drug exposure, wash, another 48 hr, deoxycytidine kinase-deficient CCRF-CEM",51000 nM and 41000 nM and 30000 nM
same,IC50,"H-460 [7]; Homo sapiens, NCI-H460, read-out: IC50 H-460 24 h, Average, MTT at 72 hr, Average of the experiments",72 ± 100 nM
same,IC50,"H-460 [7]; read-out: IC50 H-460 24 h, MTT at 72 hr, 24 h exposure, single experiment",12 nM and 86 nM
same,IC50,MCF-7 [8],78 nM
same,IC50,SF-268 [9],180 ± 250 nM
same,IC50,CCRF-CEM [10],20 ± 23 nM
same,"Resistance Factor*, Average","CEM/dCK- [11]; CEM/dCK- versus CCRF-CEM, Average of the experiments",3987 ± 3871
same,IC50,"CEM/dCK- [11]; read-out: IC50 CEM/dCK- 24 h, Average, MMT or WST-1 at 72 hr, Average of the experiments",57000 ± 39000 nM
O=c1ccn([C@@H]2O[C@H](CO)[C@@H](O)[C@H]2O)c(=O)[nH]1 [uridine],inhibition at 10 µM,hENT1,~75%
same,uptake of [3H]nucleoside over the 6-min time course,CEM/ARAC8C cells [12],Lack of [^3H]uridine uptake
